Several values for one entry are separate records, joined by “and”; a condition that tells them apart may be missing. Equal entries are not always repeated. Inconclusive results and toxic doses are left out. How the source made its calls: active means survival T/C of 150% or more; inactive means T/C below 125% in these data.
Test system: P388 leukemia ip, CD2F1 mice, survival T/C
Test: NCI In Vivo Anticancer Drug Screen. Data for tumor model P388 Leukemia (intraperitoneal) in CD2F1 (CDF1) mice
Conditions: endpoint: median survival time, higher = longer survival
Method in brief: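 Mice carrying the transplanted tumor received test compound or vehicle. Survival was recorded in each group, and the value is the treated-group measurement divided by that of the vehicle-treated control group.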

[1] = dose: 60.0 mg/kg/injection, schedule: Q01DX005 (ip), vehicle: saline with Tween-80
[2] = dose: 120.0 mg/kg/injection, schedule: Q01DX005 (ip), vehicle: saline with Tween-80
[3] = dose: 240.0 mg/kg/injection, schedule: Q01DX005 (ip), vehicle: saline with Tween-80
[4] = dose: 50.0 mg/kg/injection, schedule: Q01DX005 (ip), vehicle: saline with Tween-80
[5] = dose: 100.0 mg/kg/injection, schedule: Q01DX005 (ip), vehicle: saline with Tween-80
[6] = dose: 200.0 mg/kg/injection, schedule: Q01DX005 (ip), vehicle: saline with Tween-80
[7] = dose: 50.0 mg/kg/injection, schedule: Q01DX005 (ip), vehicle: Klucel (hydroxypropylcellulose) (HPC)
[8] = dose: 100.0 mg/kg/injection, schedule: Q01DX005 (ip), vehicle: Klucel (hydroxypropylcellulose) (HPC)
[9] = dose: 200.0 mg/kg/injection, schedule: Q01DX005 (ip), vehicle: Klucel (hydroxypropylcellulose) (HPC)

Measured: T/C

NCCN1C(=O)C2C3CCC(O3)C2C1=O (stereo unspecified)
inactive: [1] 96 % of control | [2] 98 % of control | [3] 107 % of control

CC(=O)NCc1cccc([N+](=O)[O-])c1
inactive: dose: 25.0 mg/kg/injection, schedule: Q01DX005 (ip), vehicle: saline with Tween-80 100 % of control | [4] 103 % of control | [5] 100 % of control | [6] 105 % of control

CCCCCCN(CCCCCC)CC(O)c1cccc2ccc(Cl)cc12 (stereo unspecified)
inactive: [4] 90 % of control | [5] 95 % of control | [6] 109 % of control

COC(C)(C)[CH]([Hg][Cl])n1ccccc1=O (stereo unspecified)
inactive: dose: 6.25 mg/kg/injection, schedule: Q04DX003 (ip), vehicle: Klucel (hydroxypropylcellulose) (HPC) 100 % of control | dose: 12.5 mg/kg/injection, schedule: Q04DX003 (ip), vehicle: Klucel (hydroxypropylcellulose) (HPC) 93 % of control | dose: 25.0 mg/kg/injection, schedule: Q04DX003 (ip), vehicle: Klucel (hydroxypropylcellulose) (HPC) 99 % of control and 100 % of control

Clc1ccc(C2C3CCN2CC3)cc1 (stereo unspecified)
inactive: dose: 0.78 mg/kg/injection, schedule: Q01DX009 (ip), vehicle: saline 100 % of control | dose: 1.56 mg/kg/injection, schedule: Q01DX009 (ip), vehicle: saline 96 % of control | dose: 3.12 mg/kg/injection, schedule: Q01DX009 (ip), vehicle: saline 94 % of control

Cc1ccc(/C=C/[N+](=O)[O-])cc1
inactive: dose: 6.25 mg/kg/injection, schedule: Q01DX009 (ip), vehicle: saline sonified 100 % of control | dose: 12.5 mg/kg/injection, schedule: Q01DX009 (ip), vehicle: saline sonified 100 % of control | dose: 25.0 mg/kg/injection, schedule: Q01DX009 (ip), vehicle: saline sonified 100 % of control

O=c1[nH]c(-c2ccc(Cl)cc2)nc2sc3c(c12)CCCC3
inactive: [7] 86 % of control | [8] 90 % of control | [9] 99 % of control

CC(C)(CO)NC(=O)c1ccc(C(C)(C)C)cc1Br
inactive: dose: 100.0 mg/kg/injection, schedule: Q01DX001 (ip), vehicle: saline with Tween-80 99 % of control | dose: 200.0 mg/kg/injection, schedule: Q01DX001 (ip), vehicle: saline with Tween-80 99 % of control | dose: 400.0 mg/kg/injection, schedule: Q01DX001 (ip), vehicle: saline with Tween-80 100 % of control

O=c1[nH]c(CN2CCOCC2)ncc1C1CCCCC1
inactive: dose: 50.0 mg/kg/injection, schedule: Q01DX009 (ip), vehicle: saline with Tween-80 97 % of control | dose: 100.0 mg/kg/injection, schedule: Q01DX009 (ip), vehicle: saline with Tween-80 100 % of control | dose: 200.0 mg/kg/injection, schedule: Q01DX009 (ip), vehicle: saline with Tween-80 95 % of control

Cc1cc(N/N=C/c2ccc(Br)cc2)c2cc3c(cc2n1)OCO3
inactive: [7] 94 % of control | [8] 96 % of control | [9] 96 % of control

Clc1ccc(N=Cc2cccs2)c(Cl)c1
inactive: dose: 50.0 mg/kg/injection, schedule: Q01DX009 (ip), vehicle: Klucel (hydroxypropylcellulose) (HPC) 118 % of control | dose: 100.0 mg/kg/injection, schedule: Q01DX009 (ip), vehicle: Klucel (hydroxypropylcellulose) (HPC) 107 % of control | dose: 200.0 mg/kg/injection, schedule: Q01DX009 (ip), vehicle: Klucel (hydroxypropylcellulose) (HPC) 110 % of control

Cc1ccc(S(=O)(=O)N(CCCc2c(Cl)nc(N)nc2-c2ccccc2)c2ccccc2)cc1
inactive: [1] 87 % of control | [2] 87 % of control | [3] 89 % of control

CC(Cc1ccccc1)N(C)Cc1ccc(-c2ccccc2)o1 (stereo unspecified)
inactive: [1] 100 % of control | [2] 108 % of control | [3] 109 % of control

N#Cc1cc(C23CCC(C2)N3)ccc1[N+](=O)[O-] (stereo unspecified)
inactive: dose: 100.0 mg/kg/injection, schedule: Q04DX003 (ip), vehicle: saline 105 % of control | dose: 200.0 mg/kg/injection, schedule: Q04DX003 (ip), vehicle: saline 91 % of control | dose: 400.0 mg/kg/injection, schedule: Q04DX003 (ip), vehicle: saline 92 % of control

CCOc1c(N=Nc2ccc(OC)cc2)c(C)nn1C(=S)SC
inactive: dose: 60.0 mg/kg/injection, schedule: Q01DX005 (ip), vehicle: Klucel + Tween-80 92 % of control | dose: 120.0 mg/kg/injection, schedule: Q01DX005 (ip), vehicle: Klucel + Tween-80 92 % of control | dose: 240.0 mg/kg/injection, schedule: Q01DX005 (ip), vehicle: Klucel + Tween-80 89 % of control

From PubChem BioAssay AID330 (DTP/NCI, 2004)
